In patent US9801901B2, “Alginate oligomers for use in overcoming multidrug resistance in bacteria” (priority 2009, dated 2017):
Converted amounts (≈) assume the structure as drawn. Read-outs that look alike come from different tables or passages of the source. Marks after values point to notes of the source that are not given here.

Experiments:
[1] = test system: PA01 Pseudomonas aeruginosa ATCC 15692; experiment: MIC assay, two-fold antibiotic dilutions in CAMHB with alginate oligomer, no visible growth; type: cell-based; conditions: Pseudomonas aeruginosa, ATCC15692, Table 1, PA01, read-out: MIC
[2] = test system: Pseudomonas aeruginosa ATCC 39324, mucoid type strain (R79); experiment: MIC assay, CAMHB with alginate oligomer, no visible growth; type: cell-based; conditions: Pseudomonas aeruginosa, ATCC39324, Table 1, R79, read-out: MIC
[3] = test system: Pseudomonas aeruginosa MDR 301 from Poland (V2); experiment: as above; type: cell-based; conditions: Pseudomonas aeruginosa, Table 1, V2 MDR 301 PA, read-out: MIC
[4] = test system: Klebsiella pneumoniae KP05 506 from India (V3); experiment: as above; type: cell-based; conditions: for MIC: Klebsiella pneumoniae, Table 1, V3 KP05 506, read-out: MIC
[5] = test system: V12 5725 (Wales) Klebsiella pneumoniae; experiment: as above; type: cell-based; conditions: Table 5, V12 MDR Kleb pneu
V22 6056 Acinetobacter = experiment: as above; type: cell-based, Acinetobacter lwoffii; conditions: Table 5, V22 MDR Acin. lwoff
[6] = test system: V19 non MDR Acinetobacter baumannii; experiment: MIC assay, CAMHB with M-block alginate oligomer, no visible growth; type: cell-based; conditions: Table 7, V19 non MDR Acin. baum
Description: The study described in Example 1 was repeated with the following strains of Acinetobacter baumannii, antibiotics and M-block alginate oligomer in place of OligoG CF-5/20 as detailed in Table 7. The M-block oligomer is 100% M with a DPn of 15 to 18,

MDR Pseudomonas strains = experiment: MIC assay of Example 1, summary over the MDR Pseudomonas strains; type: cell-based, Pseudomonas aeruginosa
[7] = test system: Pseudomonas aeruginosa (MDR 301, PSA, V2); experiment: MIC-assay, Mueller-Hinton broth with G-block alginate, 384-well, OD600; conditions: Pseudomonas aeruginosa, Table 8, V2
[8] = test system: Pseudomonas aeruginosa (R22, PSA, V1); experiment: as above
[9] = test system: Burkholderia cepacia (LMG18941, ATCC-BAA-246); experiment: as above
[10] = test system: Acinetobacter lwoffii (6056, V22); experiment: as above
[11] = test system: Acinetobacter baumannii (Egypt, V9); experiment: as above
[12] = test system: Acinetobacter lwoffii (Egypt, V10); experiment: as above
[13] = Klebsiella pneumoniae, OligoCF-5/20 0G, read-out: MIC
[14] = Acinetobacter, OligoCF-5/20 0G, read-out: MIC
[15] = Table 9, G-block (OligoCF-5/20) 0%
[16] = Table 9, G-block (OligoCF-5/20) 2%
[17] = Table 9, G-block (OligoCF-5/20) 6%
[18] = Table 9, G-block (OligoCF-5/20) 10%

`C[C@@H](O)[C@H]1C(=O)N2C(C(=O)O)=C(S[C@@H]3CN[C@H](C(=O)N(C)C)C3)[C@H](C)[C@H]12` [Meropenem] gave an MIC ([1]; OligoCF-5/20 0G) of 2 µg/mL (≈ 5.22 µM), an MIC ([1]; OligoCF-5/20 +2% G) of 2 µg/mL (≈ 5.22 µM) and an MIC ([1]; OligoCF-5/20 +6% G) of under 1 µg/mL. The MIC ([1]; OligoCF-5/20 +10% G) was under 1 µg/mL, the MIC ([2]; OligoCF-5/20 0G) was under 1 µg/mL and the MIC ([2]; OligoCF-5/20 +2% G) was under 1 µg/mL. For the same compound, the MIC ([2]; OligoCF-5/20 +6% G) was under 1 µg/mL, the MIC ([2]; OligoCF-5/20 +10% G) was under 1 µg/mL and the MIC ([3]; OligoCF-5/20 0G) was 64 µg/mL (≈ 167 µM). The MIC ([3]; OligoCF-5/20 +2% G) was 64 µg/mL (≈ 167 µM), the “effectiveness in conjunction with alginate oligomers” value ([4]; Example 1, KP05 506) was “inconclusive” and the MIC ([4]; OligoCF-5/20 0G) was 64 µg/mL (≈ 167 µM). For the same compound, the MIC ([4]; OligoCF-5/20 +2% G) was 64 µg/mL (≈ 167 µM), the MIC [5, 13] was under 0.25 µg/mL and the MIC ([5]; OligoCF-5/20 +2% G) was under 0.25 µg/mL. For the same compound, the MIC ([5]; OligoCF-5/20 +6% G) was under 0.25 µg/mL, the MIC ([5]; OligoCF-5/20 +10% G) was under 0.25 µg/mL and the MIC (V22 6056 Acinetobacter; [14]) was 256 µg/mL (≈ 668 µM). The MIC (V22 6056 Acinetobacter; OligoCF-5/20 +10% G) was 64^† μg/ml, the MIC ([6]; M-block oligomer 0M) was 8 µg/mL (≈ 20.9 µM) and the MIC ([6]; M-block oligomer +2% M) was 4 µg/mL (≈ 10.4 µM). The MIC ([6]; M-block oligomer +6% M) was 2 µg/mL (≈ 5.22 µM) and the MIC ([6]; M-block oligomer +10% M) was 1 µg/mL (≈ 2.61 µM).

For `CC(C)(O/N=C(\C(=O)N[C@@H]1C(=O)N2C(C(=O)[O-])=C(C[n+]3ccccc3)CS[C@H]12)c1csc(N)n1)C(=O)O` [Ceftazidime], the MIC ([1]; OligoCF-5/20 0G) was under 1 µg/mL, the MIC ([1]; OligoCF-5/20 +2% G) was under 1 µg/mL and the MIC ([1]; OligoCF-5/20 +6% G) was under 1 µg/mL. It also gave an MIC ([1]; OligoCF-5/20 +10% G) of under 1 µg/mL, an MIC ([2]; OligoCF-5/20 0G) of under 1 µg/mL and an MIC ([2]; OligoCF-5/20 +2% G) of under 1 µg/mL. It also gave an MIC ([2]; OligoCF-5/20 +6% G) of under 1 µg/mL, an MIC ([2]; OligoCF-5/20 +10% G) of under 1 µg/mL and an MIC ([3]; OligoCF-5/20 0G) of 32 µg/mL (≈ 58.5 µM). For the same compound, the MIC ([3]; OligoCF-5/20 +2% G) was 16 µg/mL (≈ 29.3 µM), the MIC ([3]; OligoCF-5/20 +6% G) was 8 µg/mL (≈ 14.6 µM) and the MIC ([3]; OligoCF-5/20 +10% G) was 4 µg/mL (≈ 7.32 µM). The MIC ([4]; OligoCF-5/20 0G) was over 1020 µg/mL, the MIC ([4]; OligoCF-5/20 +2% G) was over 1020 µg/mL and the MIC ([4]; OligoCF-5/20 +6% G) was over 1020 µg/mL. It also gave an MIC ([4]; OligoCF-5/20 +10% G) of over 1020 µg/mL, an MIC [5, 13] of 64 µg/mL (≈ 117 µM) and an MIC ([5]; OligoCF-5/20 +2% G) of 64 µg/mL (≈ 117 µM). The MIC ([5]; OligoCF-5/20 +6% G) was 16^† μg/ml, the MIC ([5]; OligoCF-5/20 +10% G) was 16^† μg/ml and the MIC (V22 6056 Acinetobacter; [14]) was 16 µg/mL (≈ 29.3 µM). For the same compound, the MIC (V22 6056 Acinetobacter; OligoCF-5/20 +2% G) was 16 µg/mL (≈ 29.3 µM), the MIC (V22 6056 Acinetobacter; OligoCF-5/20 +6% G) was 4^† μg/ml and the MIC (V22 6056 Acinetobacter; OligoCF-5/20 +10% G) was 2^† μg/ml. The “effectiveness when used in combination with the alginate oligomers” value (MDR Pseudomonas strains) was “more effective”, the MIC ([7]; G-block (OligoCF-5/20) 0%) was 0.5 µg/mL (≈ 0.915 µM) and the MIC ([7]; G-block (OligoCF-5/20) 6%) was 0.25 µg/mL (≈ 0.457 µM). It also gave an MIC ([8]; Table 8, G-block (OligoCF-5/20) 0%) of over 16 µg/mL, an MIC ([8]; Table 8, G-block (OligoCF-5/20) 2%) of over 16 µg/mL and an MIC ([8]; Table 8, G-block (OligoCF-5/20) 6%) of over 16 µg/mL. It also gave an MIC ([8]; Table 8, G-block (OligoCF-5/20) 10%) of over 16 µg/mL, an MIC ([9]; ATCCBAA246|LMG18941, Table 8, G-block (OligoCF-5/20) 0%) of over 16 µg/mL and an MIC ([9]; ATCCBAA246|LMG18941, Table 8, G-block (OligoCF-5/20) 2%) of 16 µg/mL (≈ 29.3 µM). The MIC ([9]; ATCCBAA246|LMG18941, Table 8, G-block (OligoCF-5/20) 6%) was 16 µg/mL (≈ 29.3 µM), the MIC ([9]; ATCCBAA246|LMG18941, Table 8, G-block (OligoCF-5/20) 10%) was 16 µg/mL (≈ 29.3 µM) and the MIC [10, 15] was 8 µg/mL (≈ 14.6 µM). The MIC [10, 16] was 4 µg/mL (≈ 7.32 µM), the MIC [10, 17] was 2 µg/mL (≈ 3.66 µM) and the MIC [10, 18] was 2 µg/mL (≈ 3.66 µM). It also gave an MIC [11, 15] of over 16 µg/mL, an MIC [11, 16] of over 16 µg/mL and an MIC [11, 17] of over 16 µg/mL. The MIC [11, 18] was over 16 µg/mL, the MIC [12, 15] was 2 µg/mL (≈ 3.66 µM) and the MIC [12, 16] was 1 µg/mL (≈ 1.83 µM). The MIC [12, 17] was 0.25 µg/mL (≈ 0.457 µM) and the MIC [12, 18] was 0.25 µg/mL (≈ 0.457 µM).
